Consider nine compounds from US20130338178A1, “SIRTUIN MODULATORS AS INHIBITORS OF CYTOMEGALOVIRUS” (THE TRUSTEES OF PRINCETON UNIVERSITY, priority 2011, published 2013).

Where two headings read alike, the source gives them in different places. Peptide text beside a SMILES is read from it. Some results are limits rather than exact numbers.

For orientation: IC50 means the concentration that inhibits the measured activity by half.

The subject of one series is HCMV pUL99. In words: Late viral pUL99 expression and cytopathic effect in HCMV infected MRC5 cells. It counts as cell-based, human cytomegalovirus. On the technique in general: Cytopathic effects are the visible damage that an infection or toxin causes in cultured cells.
The test system of series [1] is tumor necrosis factor alpha (TNFα) release. As to conditions: cited from earlier work.
Series [2] deals with T1, SIRT2 (Homo sapiens, UniProt Q8IXJ6).
T1 sequence (Q8IXJ6 1-389): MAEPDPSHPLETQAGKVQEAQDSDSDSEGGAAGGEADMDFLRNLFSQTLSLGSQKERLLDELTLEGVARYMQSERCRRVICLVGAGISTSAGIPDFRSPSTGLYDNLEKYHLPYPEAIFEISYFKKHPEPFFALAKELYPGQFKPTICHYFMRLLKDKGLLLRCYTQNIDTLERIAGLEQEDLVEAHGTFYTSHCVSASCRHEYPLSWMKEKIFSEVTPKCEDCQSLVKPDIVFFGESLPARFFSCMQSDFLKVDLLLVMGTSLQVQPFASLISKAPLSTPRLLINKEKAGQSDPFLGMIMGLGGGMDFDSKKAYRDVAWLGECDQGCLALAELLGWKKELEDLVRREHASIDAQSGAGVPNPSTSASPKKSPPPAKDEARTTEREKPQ
Particulars: cited from earlier work.

Another series concerns the target T2, Sirt5 (Homo sapiens, UniProt Q9NXA8).
T2 sequence (Q9NXA8 37-310): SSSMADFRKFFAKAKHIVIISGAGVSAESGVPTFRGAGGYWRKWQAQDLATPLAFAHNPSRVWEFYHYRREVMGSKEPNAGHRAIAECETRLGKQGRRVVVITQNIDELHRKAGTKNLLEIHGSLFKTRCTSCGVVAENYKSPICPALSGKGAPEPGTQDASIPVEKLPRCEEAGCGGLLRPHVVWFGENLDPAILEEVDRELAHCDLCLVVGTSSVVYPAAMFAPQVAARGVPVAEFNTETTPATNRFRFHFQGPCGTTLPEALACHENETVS
As to conditions: cited from earlier work.

Another series deals with Sirt6 (Homo sapiens, UniProt Q8N6T7). As to conditions: cited from earlier work.
Chain of Sirt6 (Q8N6T7 whole entry): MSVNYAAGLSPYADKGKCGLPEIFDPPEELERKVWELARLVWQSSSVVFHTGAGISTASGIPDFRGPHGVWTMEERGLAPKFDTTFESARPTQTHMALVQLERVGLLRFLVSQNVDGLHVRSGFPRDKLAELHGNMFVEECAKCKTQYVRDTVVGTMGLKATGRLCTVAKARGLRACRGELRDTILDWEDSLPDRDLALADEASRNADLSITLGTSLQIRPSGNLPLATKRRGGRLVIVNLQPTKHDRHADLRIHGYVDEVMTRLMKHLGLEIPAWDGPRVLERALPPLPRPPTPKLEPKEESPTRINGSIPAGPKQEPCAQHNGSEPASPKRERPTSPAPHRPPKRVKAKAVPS
For another series, the target named is Hst2 (Saccharomyces cerevisiae, UniProt P53686). Particulars: cited from earlier work.
Chain of Hst2 (P53686 whole entry): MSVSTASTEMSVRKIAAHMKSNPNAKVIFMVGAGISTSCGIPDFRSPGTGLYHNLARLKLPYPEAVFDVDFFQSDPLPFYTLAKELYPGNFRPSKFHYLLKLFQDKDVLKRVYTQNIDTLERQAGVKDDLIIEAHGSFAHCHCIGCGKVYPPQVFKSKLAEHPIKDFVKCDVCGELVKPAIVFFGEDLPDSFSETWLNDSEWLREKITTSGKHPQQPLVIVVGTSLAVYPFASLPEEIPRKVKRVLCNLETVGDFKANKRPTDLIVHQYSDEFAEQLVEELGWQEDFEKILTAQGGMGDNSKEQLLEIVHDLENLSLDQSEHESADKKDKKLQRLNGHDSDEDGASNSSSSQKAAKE
Series [3] concerns the target T3, SIRT1 (Homo sapiens, UniProt Q96EB6).
T3 sequence (Q96EB6 1-747): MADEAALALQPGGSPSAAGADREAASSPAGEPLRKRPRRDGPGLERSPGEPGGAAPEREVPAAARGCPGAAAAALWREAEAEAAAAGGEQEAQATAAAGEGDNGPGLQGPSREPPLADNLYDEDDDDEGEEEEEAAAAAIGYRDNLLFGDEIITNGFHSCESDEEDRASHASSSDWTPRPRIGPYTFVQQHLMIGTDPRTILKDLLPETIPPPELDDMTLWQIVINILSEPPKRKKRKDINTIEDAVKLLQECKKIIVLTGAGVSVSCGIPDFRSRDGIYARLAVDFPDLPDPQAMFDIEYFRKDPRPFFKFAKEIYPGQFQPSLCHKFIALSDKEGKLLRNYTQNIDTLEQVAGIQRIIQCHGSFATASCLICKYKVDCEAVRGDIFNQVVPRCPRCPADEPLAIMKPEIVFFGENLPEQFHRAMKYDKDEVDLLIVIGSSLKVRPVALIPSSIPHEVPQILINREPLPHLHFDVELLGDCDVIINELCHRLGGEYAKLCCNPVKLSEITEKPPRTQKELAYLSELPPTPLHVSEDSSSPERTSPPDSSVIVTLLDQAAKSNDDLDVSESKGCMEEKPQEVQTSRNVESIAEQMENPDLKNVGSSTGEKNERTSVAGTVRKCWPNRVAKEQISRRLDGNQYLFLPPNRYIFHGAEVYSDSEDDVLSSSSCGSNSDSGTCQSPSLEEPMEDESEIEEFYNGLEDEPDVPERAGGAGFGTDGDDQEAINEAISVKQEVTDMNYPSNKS
As to conditions: cited from earlier work.

Series [4] concerns HCMV. In words: Yield of infectious HCMV from drug-treated infected MRC5 fibroblasts. The format is cell-based, human cytomegalovirus. As to conditions: for reduction of the yield of infectious HCMV by a factor of: MRC5, 10% fetal calf serum, added 4 hours after infection.
The target in series [5] is T3, SIRT1. As to conditions: cited from earlier work. The source holds these as a separate data set.
Series [6] concerns the target T1, SIRT2. As to conditions: 100 μM; cited from earlier work.
In series [7] the test system is HCMV. It counts as cell-based, human cytomegalovirus.
For series [8], the system named is Influenza A (WSN/33/A, PR8). It counts as cell-based, influenza A virus.
Series [9] has as its target T3, SIRT1. As to conditions: cited from earlier work. This is another data set of the same source.
Series [10] has as its target T1, SIRT2. As to conditions: cited from earlier work. This is another data set of the same source.
The target in a further series is T4, SIRT3 (Homo sapiens, UniProt Q9NTG7).
T4 sequence (Q9NTG7 1-399): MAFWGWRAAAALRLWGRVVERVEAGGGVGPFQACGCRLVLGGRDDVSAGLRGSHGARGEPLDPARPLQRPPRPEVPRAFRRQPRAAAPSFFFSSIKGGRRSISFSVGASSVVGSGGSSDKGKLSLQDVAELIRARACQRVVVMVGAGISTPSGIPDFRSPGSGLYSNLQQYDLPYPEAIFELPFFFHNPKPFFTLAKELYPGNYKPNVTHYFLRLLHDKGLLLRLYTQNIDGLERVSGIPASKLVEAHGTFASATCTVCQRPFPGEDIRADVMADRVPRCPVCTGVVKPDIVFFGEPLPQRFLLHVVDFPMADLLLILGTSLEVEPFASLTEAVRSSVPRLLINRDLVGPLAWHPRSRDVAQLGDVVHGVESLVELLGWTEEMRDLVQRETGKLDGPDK
Particulars: cited from earlier work.

In series [11] the test system is Burkitt lymphoma xenografts. Particulars: mouse, in vivo; cited from earlier work.
The conditions of series [12]: mice; cited from earlier work.

For the compound `Nc1c(S(=O)(=O)c2ccccc2)c2nc3ccccc3nc2n1-c1ccc(F)cc1` [CAY10602], in the series with HCMV pUL99 (25 μM), the pUL99 expression entry is “almost completely inhibited”. For the same compound, in series [1], the “suppression of TNFα release, extent relative to resveratrol” value is reported as 10 fold.
As to `CN1CC(C(=O)NC2(C)OC3(O)C4CCCN4C(=O)C(Cc4ccccc4)N3C2=O)C=C2c3cccc4[nH]cc(c34)CC21` (stereo not shown) [CSC21], the Sirt2 effect result at SIRT2 [2] is “inhibition”. At Sirt5, the Sirt5 effect result is “inhibition”. Moreover, the Sirt6 effect result on Sirt6 is given as “inhibition”.
For `O=S(=O)(c1cccc(C(F)(F)F)c1)N1c2ccccc2-n2cccc2C1c1cccnc1` (stereo not shown) [CSC38], on SIRT2 [2], the Sirt2 effect entry is “inhibition”. Also, the Sirt5 effect entry at Sirt5 is reported as “activation”. In addition, the Sirt6 effect entry on Sirt6 is “activation”.
Consider `Cc1ccc2[nH]c3c(c2c1)CCCC3C(N)=O` (stereo not shown) [Indole 2], for which the IC50 was 14.5 ± 0.6 µM at Hst2 and 640 ± 60 nM on SIRT1 [3].
Turning to `Oc1ccc(C=Cc2cc(O)cc(O)c2)cc1` [Resveratrol], the “reduction of the yield of infectious HCMV by a factor of” value is given as greater than 18 fold in the series with HCMV [4] (50 μM) and greater than 100 fold with HCMV [4] (100 μM). In the series on HCMV pUL99 (HCMV infected MRC5 cells, added 4 hours after infection, data not shown), the “cytopathic effect of HCMV” value is recorded as “inhibited”. Further, the “expression of late viral pUL99” value with HCMV pUL99 (dose dependent, data not shown) is given as “substantially reduced”. The “increase of SIRT1 activity” value on SIRT1 [5] (46 μM) was 1.5 fold; on SIRT1 [5] (100 μM) it was 13 fold. Also, at SIRT1 [5], the “EC1.5: The concentration to activate 1.5-fold” value is 46 µM. Besides, the “activation of SIRT2” value at SIRT2 [6] is reported as “does not activate”.
`CC(C(=O)Nc1cccc(/N=C/c2c(O)ccc3ccccc23)c1)c1ccccc1` (stereo not shown) [Salermide]: in the series on HCMV [4] (FIG. 5), the “production of infectious HCMV” value is on record as “blocked”. Also, in the series with HCMV [7], the “inhibition of HCMV production by a factor of” value was “about 5” and the “inhibition of the production of HCMV progeny by a factor of” value is on record as roughly 80. Further, the “production of infectious Influenza A progeny” value in series [8] is “inhibited”.
`CC(C)CCCCCCCCC[C@@H]1CC(=O)NC(CCC(=O)O)C(=O)N[C@@H](CC(C)C)C(=O)N[C@H](CC(C)C)C(=O)N[C@@H](C(C)C)C(=O)N[C@@H](CC(=O)O)C(=O)N[C@H](CC(C)C)C(=O)N[C@@H](CC(C)C)C(=O)O1` (stereo partly drawn) [Surfactin, surfactin] (HELM PEPTIDE1{[O=C(O)CCC(N[*:1])C(=O)[*:2]].L.[dL].V.D.[dL].L}|CHEM1{[CC(C)CCCCCCCCC[C@H](CC(=O)[*:1])O[*:2]]}$PEPTIDE1,CHEM1,1:R1-1:R1|PEPTIDE1,CHEM1,7:R2-1:R2$$$V2.0): the IC50 on Hst2 is greater than 700 µM; on SIRT1 [3] it was greater than 600000 nM.
In the case of `CC(=O)Nc1ccc(NC(=S)NC(=O)c2ccc(C(C)(C)C)cc2)cc1` [Tenovin 1], the figures for the IC50 at SIRT1 [9], at SIRT2 [10] and at SIRT3 were 21 µM, 10 µM and 67 µM, respectively.
As for Cambinol, in the series with HCMV [4] (50 μM, 96 h after infection, limit of detection), the virus yield is recorded as < 10^2 IU/ml. The pUL99 accumulation result in the series with HCMV pUL99 (50 μM, data not shown) was “substantial block”. For the same compound, in series [8], the “inhibition of influenza A in combination with oseltamivir” value is listed as “cooperated with oseltamivir” and the “production of infectious Influenza A progeny” value is recorded as “inhibited”. The Burkitt lymphoma xenografts result in series [11] is recorded as “inhibits”. Also, the IC50 at Hst2 is greater than 1000 µM. Besides, the tolerability result in series [12] was “well-tolerated”.
